What was measured:
[1] = AUC(last) in rat at 1 mg/kg, iv measured up to 24 hrs by LC-MS/MS analysis; type: ADME, organism-based; set-up: dose 1 mg/kg, route intravenous, time 0 - last; conditions: in vivo
[2] = Cytotoxicity in human HEK293 cells assessed as inhibition of cell growth at 3 uM incubated for 72 hrs by CCK8 assay relative to control; type: cell-based; conditions: read-out: GI
[3] = Half life in rat at 1 mg/kg, iv measured up to 24 hrs by LC-MS/MS analysis; type: ADME, organism-based; conditions: in vivo
[4] = Cmax in rat at 10 mg/kg, po measured up to 24 hrs by LC-MS/MS analysis; type: ADME, organism-based; set-up: dose 10 mg/kg, route oral; conditions: in vivo
[5] = Drug metabolism in human liver microsomes assessed as metabolic rate at 1 uM preincubated for 5 mins before NADPH addition and measured up to 30 mins by LC-MS/MS analysis; type: ADME, Microsome; conditions: 0.5 h
[6] = Protein binding in rat plasma; type: ADME, cell-free; conditions: read-out: PPB
CYP2D6 = CYP2D6 (Homo sapiens, UniProt P10635); assay: Inhibition of CYP2D6 in pooled human liver microsomes at 10 uM pre-incubated for 5 mins before NADPH addition and measured after 10 mins by UPLC-MS/MS analysis relative to control; type: ADME
Chain of CYP2D6 (P10635 whole entry): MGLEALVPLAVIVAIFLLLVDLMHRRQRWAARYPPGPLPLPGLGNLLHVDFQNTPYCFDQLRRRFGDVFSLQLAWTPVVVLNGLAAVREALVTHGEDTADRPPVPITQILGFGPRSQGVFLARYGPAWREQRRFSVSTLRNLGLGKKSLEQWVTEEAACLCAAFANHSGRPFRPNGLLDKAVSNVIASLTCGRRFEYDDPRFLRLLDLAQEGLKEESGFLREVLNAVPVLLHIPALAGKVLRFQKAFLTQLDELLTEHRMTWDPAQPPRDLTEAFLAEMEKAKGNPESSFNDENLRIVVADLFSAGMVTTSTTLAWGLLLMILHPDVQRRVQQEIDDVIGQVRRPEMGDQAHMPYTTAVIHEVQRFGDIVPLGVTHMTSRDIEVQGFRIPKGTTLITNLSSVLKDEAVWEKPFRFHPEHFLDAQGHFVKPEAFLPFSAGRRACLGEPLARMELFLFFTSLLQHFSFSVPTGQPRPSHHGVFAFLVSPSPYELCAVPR

[7] = Oral bioavailability in rat at 10 mg/kg measured up to 24 hrs by LC-MS/MS analysis; type: ADME, organism-based; conditions: in vivo
[8] = Volume of distribution at steady state in rat at 1 mg/kg, iv measured up to 24 hrs by LC-MS/MS analysis; type: ADME, organism-based; conditions: in vivo, read-out: Vdss
[9] = Cytotoxicity in human HuH7 cells assessed as inhibition of cell growth at 3 uM incubated for 72 hrs by CCK8 assay relative to control; type: cell-based, Huh-7; conditions: read-out: GI
[10] = Protein binding in human plasma; type: ADME, cell-free; conditions: read-out: PPB
[11] = AUC (last) in rat at 10 mg/kg, po measured up to 24 hrs by LC-MS/MS analysis; type: ADME, organism-based; set-up: dose 10 mg/kg, time 0 - last, route oral; conditions: in vivo
[12] = Drug level in liver of Wistar rat at 10 mg/kg, po measured up to 8 hrs by LC-MS/MS analysis; type: ADME, organism-based; conditions: in vivo
[13] = Cytotoxicity in human HEK293 cells assessed as inhibition of cell growth at 10 uM incubated for 72 hrs by CCK8 assay relative to control; type: cell-based; conditions: read-out: GI
[14] = Cytotoxicity in human HepG2 cells assessed as inhibition of cell growth at 3 uM incubated for 72 hrs by CCK8 assay relative to control; type: cell-based; conditions: read-out: GI
[15] = Clearance in rat at 1 mg/kg, iv measured up to 24 hrs by LC-MS/MS analysis; type: ADME, organism-based; conditions: in vivo
[16] = Drug metabolism in rat liver microsomes assessed as metabolic rate at 1 uM preincubated for 5 mins before NADPH addition and measured up to 30 mins by LC-MS/MS analysis; type: ADME, Microsome; conditions: 0.5 h
[17] = Cytotoxicity in human HepG2 cells assessed as inhibition of cell growth at 10 uM incubated for 72 hrs by CCK8 assay relative to control; type: cell-based; conditions: read-out: GI
CYP2C9 = CYP2C9 (Homo sapiens, UniProt P11712); assay: Inhibition of CYP2C9 in pooled human liver microsomes at 10 uM pre-incubated for 5 mins before NADPH addition and measured after 10 mins by UPLC-MS/MS analysis relative to control; type: ADME
Chain of CYP2C9 (P11712 whole entry): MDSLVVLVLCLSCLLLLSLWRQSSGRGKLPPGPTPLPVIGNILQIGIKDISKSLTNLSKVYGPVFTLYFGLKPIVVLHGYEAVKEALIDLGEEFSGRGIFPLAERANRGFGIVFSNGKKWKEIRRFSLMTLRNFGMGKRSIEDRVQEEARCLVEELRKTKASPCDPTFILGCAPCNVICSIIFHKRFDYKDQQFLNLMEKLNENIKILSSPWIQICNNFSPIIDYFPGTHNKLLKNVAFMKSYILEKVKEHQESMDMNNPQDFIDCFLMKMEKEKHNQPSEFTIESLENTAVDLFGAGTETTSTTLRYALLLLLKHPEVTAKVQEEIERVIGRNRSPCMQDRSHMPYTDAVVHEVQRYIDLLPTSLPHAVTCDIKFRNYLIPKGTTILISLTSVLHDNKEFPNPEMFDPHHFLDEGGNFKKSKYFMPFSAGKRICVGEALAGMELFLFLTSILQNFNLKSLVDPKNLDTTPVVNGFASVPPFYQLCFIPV

[18] = Ratio of dug level in liver to plasma of Wistar rat at 10 mg/kg, po measured at 4 hrs by LC-MS/MS analysis; type: ADME, organism-based
[19] = Drug level in liver of Wistar rat at 10 mg/kg, po measured at 4 hrs by LC-MS/MS analysis; type: ADME, organism-based; conditions: read-out: Drug uptake
[20] = Drug level in plasma of Wistar rat at 10 mg/kg, po measured at 4 hrs by LC-MS/MS analysis; type: ADME, organism-based
CYP3A4 = CYP3A4 (Homo sapiens, UniProt P08684); assay: Inhibition of CYP3A4 in pooled human liver microsomes at 10 uM pre-incubated for 5 mins before NADPH addition and measured after 10 mins by UPLC-MS/MS analysis relative to control; type: ADME
Chain of CYP3A4 (P08684 whole entry): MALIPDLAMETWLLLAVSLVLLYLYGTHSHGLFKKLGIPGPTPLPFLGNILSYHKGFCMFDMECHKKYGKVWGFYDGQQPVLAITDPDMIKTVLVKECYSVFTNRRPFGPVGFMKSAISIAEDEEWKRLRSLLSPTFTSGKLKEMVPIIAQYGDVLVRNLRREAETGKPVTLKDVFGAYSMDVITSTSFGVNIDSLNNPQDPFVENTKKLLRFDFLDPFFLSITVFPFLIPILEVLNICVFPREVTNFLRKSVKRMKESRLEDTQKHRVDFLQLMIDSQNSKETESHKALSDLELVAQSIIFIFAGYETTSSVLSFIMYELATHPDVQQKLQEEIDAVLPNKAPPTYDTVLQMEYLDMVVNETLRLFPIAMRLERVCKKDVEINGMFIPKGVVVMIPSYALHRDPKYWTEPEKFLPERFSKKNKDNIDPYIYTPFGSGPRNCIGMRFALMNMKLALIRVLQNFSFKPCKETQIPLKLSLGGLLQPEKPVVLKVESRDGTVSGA

[21] = biological target: T1, Nonstructural protein 5A (Hepatitis C virus) (UniProt Q5L478); assay: Inhibition of NS5A in HCV genotype 1b infected in human HuH7.5/Con1/SG-Neo(I)-hRluc2aUb cells assessed as inhibition of replicon levels at 0.1 uM incubated for 72 hrs by luciferase reporter gene assay relative to control; conditions: Hepatitis C virus subtype 1b
T1 sequence (whole entry): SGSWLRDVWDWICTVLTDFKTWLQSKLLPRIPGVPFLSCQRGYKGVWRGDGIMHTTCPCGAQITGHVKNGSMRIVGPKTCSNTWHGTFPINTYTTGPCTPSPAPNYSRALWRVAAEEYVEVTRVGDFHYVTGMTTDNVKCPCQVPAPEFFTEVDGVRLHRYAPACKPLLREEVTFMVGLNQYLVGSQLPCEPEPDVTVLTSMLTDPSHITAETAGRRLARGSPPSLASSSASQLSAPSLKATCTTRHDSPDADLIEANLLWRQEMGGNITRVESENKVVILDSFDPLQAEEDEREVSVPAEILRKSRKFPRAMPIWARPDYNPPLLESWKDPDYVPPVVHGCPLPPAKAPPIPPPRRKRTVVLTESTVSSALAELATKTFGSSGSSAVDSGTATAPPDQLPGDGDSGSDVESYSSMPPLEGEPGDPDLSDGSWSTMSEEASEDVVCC

[22] = biological target: T1, Nonstructural protein 5A (Hepatitis C virus); assay: Inhibition of NS5A in HCV genotype 2a infected in human Huh7.5/J6/JFH1/EMCVIRES/hRlucNeo cells assessed as inhibition of replicon levels at 1 uM incubated for 72 hrs by luciferase reporter gene assay; conditions: Hepatitis C virus subtype 2a
[23] = AUC (last) in rat at 30 mg/kg, po measured up to 24 hrs by LC-MS/MS analysis; type: ADME, organism-based; set-up: dose 30 mg/kg, time 0 - last, route oral; conditions: in vivo
[24] = Tmax in rat at 100 mg/kg, po measured up to 24 hrs by LC-MS/MS analysis; type: ADME, organism-based; conditions: in vivo
[25] = Volume of distribution at steady state in beagle dog at 1 mg/kg, iv measured up to 24 hrs by LC-MS/MS analysis; type: ADME, organism-based, Canis lupus familiaris; conditions: in vivo, read-out: Vdss
[26] = Cmax in beagle dog at 10 mg/kg, po measured up to 24 hrs by LC-MS/MS analysis; type: ADME, organism-based, Canis lupus familiaris; set-up: dose 10 mg/kg, route oral; conditions: in vivo
[27] = Clearance in beagle dog at 1 mg/kg, iv measured up to 24 hrs by LC-MS/MS analysis; type: ADME, organism-based, Canis lupus familiaris; conditions: in vivo
[28] = Cmax in rat at 100 mg/kg, po measured up to 24 hrs by LC-MS/MS analysis; type: ADME, organism-based; set-up: dose 100 mg/kg, route oral; conditions: in vivo
[29] = Cmax in rat at 30 mg/kg, po measured up to 24 hrs by LC-MS/MS analysis; type: ADME, organism-based; set-up: dose 30 mg/kg, route oral; conditions: in vivo
[30] = AUC (last) in beagle dog at 10 mg/kg, po measured up to 24 hrs by LC-MS/MS analysis; type: ADME, organism-based, Canis lupus familiaris; set-up: dose 10 mg/kg, time 0 - last, route oral; conditions: in vivo
[31] = Tmax in rat at 10 mg/kg, po measured up to 24 hrs by LC-MS/MS analysis; type: ADME, organism-based; conditions: in vivo
[32] = AUC (last) in rat at 100 mg/kg, po measured up to 24 hrs by LC-MS/MS analysis; type: ADME, organism-based; set-up: dose 100 mg/kg, time 0 - last, route oral; conditions: in vivo
[33] = Oral bioavailability in beagle dog at 10 mg/kg measured up to 24 hrs by LC-MS/MS analysis; type: ADME, organism-based, Canis lupus familiaris; conditions: in vivo
[34] = Half life in beagle dog at 1 mg/kg, iv measured up to 24 hrs by LC-MS/MS analysis; type: ADME, organism-based, Canis lupus familiaris; conditions: in vivo
[35] = Tmax in rat at 30 mg/kg, po measured up to 24 hrs by LC-MS/MS analysis; type: ADME, organism-based; conditions: in vivo
[36] = AUC(last) in beagle dog at 1 mg/kg, iv measured up to 24 hrs by LC-MS/MS analysis; type: ADME, organism-based, Canis lupus familiaris; set-up: dose 1 mg/kg, route intravenous, time 0 - last; conditions: in vivo

SMILES | AUC(0-t) at 24 h [1] | inhibition at 72 h, 3 µM [2] | half-life [3] | Cmax [4] | Drug metabolism [5] | inhibition at 10 min, 10 µM (CYP2D6) | bioavailability [7] | Vd [8] | inhibition at 72 h, 3 µM [9] | AUC(0-t) at 24 h [11] | Drug uptake [12] | inhibition at 72 h, 10 µM [13] | inhibition at 72 h, 3 µM [14] | clearance [15] | Drug metabolism [16] | inhibition at 72 h, 10 µM [17] | inhibition at 10 min, 10 µM (CYP2C9) | Kp at 4 h [18] | concentration at 4 h [19] | concentration at 4 h [20] | other results
COC(=O)N[C@H](C(=O)N1CCC[C@H]1c1nc(Cl)c(-c2ccc3c(c2)OCC(C)(C)COc2cc(-c4[nH]c([C@@H]5CCCN5C(=O)[C@@H](NC(=O)OC)C(C)C)nc4Cl)ccc2-3)[nH]1)C(C)C | 0.43 µM·h | 44% | 3.8 h | 500 nM | 0 nmol/min/mg | 6% | 56% | 10 L/kg | 25% | 2.4 µM·h | Active | 63% | 23% | 37 mL/min/kg | 0 nmol/min/mg | 27% | 29% | 11 | 7100 nM | 640 nM | fraction unbound [6]: < 0.01; fraction unbound [10]: < 0.01; inhibition at 10 min, 10 µM (CYP3A4): 6%
COC(=O)N[C@H](C(=O)N1CCC[C@H]1c1ncc(-c2ccc3c(c2)OCC(C)(C)COc2cc(-c4cnc([C@@H]5CCCN5C(=O)[C@@H](NC(=O)OC)C(C)C)[nH]4)ccc2-3)[nH]1)C(C)C | 1.1 µM·h | 17% | 2.1 h | 1900 nM | 0.02 nmol/min/mg | 17% | 47% | 2.3 L/kg | 4% | 5.2 µM·h | Active | 33% | 8% | 17 mL/min/kg | 0.01 nmol/min/mg | 35% | 0% | 13 | 7600 nM | 620 nM | inhibition at 10 min, 10 µM (CYP3A4): 0%
COC(=O)N[C@H](C(=O)N1CCC[C@H]1c1ncc(-c2ccc3c(c2)CC2c4ccc(-c5cnc([C@@H]6CCCN6C(=O)[C@@H](NC(=O)OC)C(C)C)[nH]5)cc4CC32)[nH]1)C(C)C (stereo partly specified) |  |  |  |  |  |  |  |  |  |  |  |  |  |  |  |  |  |  |  |  | inhibition [21]: 75%; inhibition [22]: 11%
COC(=O)N[C@H](C(=O)N1CCC[C@H]1c1ncc(-c2ccc3c(c2)OCc2cc(-c4cnc([C@@H]5CCCN5C(=O)[C@@H](NC(=O)OC)C(C)C)[nH]4)sc2-3)[nH]1)C(C)C | 2 µM·h | 14% | 1.9 h | 300 to 2000 nM | 0.02 nmol/min/mg | 13% | 30% | 1.5 L/kg | 3% | 2 to 6 µM·h | Active | 22% | 0% | 10 mL/min/kg | 0.01 nmol/min/mg | 16% | 41% | 5.5 | 7900 nM | 1390 nM | AUC(0-t) at 24 h [23]: 28 µM·h; Tmax [24]: 2 to 6 h; Vd [25]: 2 L/kg; Cmax [26]: 3000 nM; clearance [27]: 7 mL/min/kg; Cmax [28]: 7000 nM; Cmax [29]: 2000 nM; AUC(0-t) at 24 h [30]: 40 µM·h; Tmax [31]: 2 to 4 h; AUC(0-t) at 24 h [32]: 76 µM·h; bioavailability [33]: 100%; half-life [34]: 3 h; inhibition at 10 min, 10 µM (CYP3A4): 22%; Tmax [35]: 4 to 6 h; AUC(0-t) at 24 h [36]: 3 µM·h
